The structures appear in SMILES notation. ≈ marks a conversion by molar mass, not a printed value.

Results on one molecule are retold here after ChEMBL document CHEMBL5108084, “Discovery of Novel Pyrazolylpyridine Derivatives for 20-Hydroxyeicosatetraenoic Acid Synthase Inhibitors with Selective CYP4A11/4F2 Inhibition” (J Med Chem, 2022).

Data set [1] is described as follows: In vivo inhibition of CYP4A11/4F2 in Sprague-Dawley rat assessed as reduction in 20-HETE levels in kidney at 0.03 mg/kg, po measured after 8 hrs by LC-MS/MS analysis. Format: functional.
The target of a further data set is T1, CYP2C8 (Homo sapiens, UniProt P10632).
T1 sequence (P10632 whole entry): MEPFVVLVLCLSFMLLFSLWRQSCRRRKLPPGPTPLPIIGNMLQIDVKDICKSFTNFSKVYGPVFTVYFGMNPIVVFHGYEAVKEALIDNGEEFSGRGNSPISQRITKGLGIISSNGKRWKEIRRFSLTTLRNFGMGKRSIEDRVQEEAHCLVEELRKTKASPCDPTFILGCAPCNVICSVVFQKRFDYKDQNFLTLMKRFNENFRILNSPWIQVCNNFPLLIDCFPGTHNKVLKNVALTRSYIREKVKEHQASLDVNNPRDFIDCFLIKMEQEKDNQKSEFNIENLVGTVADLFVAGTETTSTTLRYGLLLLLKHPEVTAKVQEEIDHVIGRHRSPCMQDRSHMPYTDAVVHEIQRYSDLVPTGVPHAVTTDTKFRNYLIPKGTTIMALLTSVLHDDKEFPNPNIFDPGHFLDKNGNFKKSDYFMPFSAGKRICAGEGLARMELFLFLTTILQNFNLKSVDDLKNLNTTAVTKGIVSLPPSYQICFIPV
As to the kind of experiment: Inhibition of CYP2C8 in human liver microsomes at 10 uM using amodiaquine as substrate preincubated for 5 mins followed by NADPH generating system addition and measured after 5 to 10 mins by LC-MS/MS analysis. In kind it is ADME, Microsome. The following applies: probe amodiaquine, time 10-15 min.

The target in data set [2] is T2, CYP3A4 (Homo sapiens, UniProt P08684). As to the kind of experiment: Inhibition of CYP3A4 in human liver microsomes using testosterone as substrate at 10 uM preincubated for 5 mins followed by NADPH generating system addition and measured after 5 to 10 mins by LC-MS/MS analysis. Format: ADME, Microsome. To be noted: probe testosterone, time 10-15 min. A general note: Liver microsomes are vesicles of endoplasmic reticulum, rich in cytochrome P450 enzymes.
T2 sequence (P08684 whole entry): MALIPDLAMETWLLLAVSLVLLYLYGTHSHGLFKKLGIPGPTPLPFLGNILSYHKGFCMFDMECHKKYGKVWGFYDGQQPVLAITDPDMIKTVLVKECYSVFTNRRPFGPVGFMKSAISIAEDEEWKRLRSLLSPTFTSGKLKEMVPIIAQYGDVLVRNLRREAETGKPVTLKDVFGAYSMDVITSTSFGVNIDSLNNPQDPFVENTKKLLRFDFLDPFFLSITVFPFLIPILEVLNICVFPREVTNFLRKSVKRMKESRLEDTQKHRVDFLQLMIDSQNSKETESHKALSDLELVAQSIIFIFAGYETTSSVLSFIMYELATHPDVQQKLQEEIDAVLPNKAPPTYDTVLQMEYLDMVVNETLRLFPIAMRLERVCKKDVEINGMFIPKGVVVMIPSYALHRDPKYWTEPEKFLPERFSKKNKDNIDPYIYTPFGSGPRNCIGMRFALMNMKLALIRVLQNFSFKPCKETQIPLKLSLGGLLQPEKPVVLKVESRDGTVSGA

Data set [3] in a line: Half life in Sprague-Dawley rat at 1 mg/kg, po measured for 24 hrs by LC-MS/MS analysis. In kind it is ADME, organism-based. To be noted: in vivo.
A short description of data set [4]: Tmax in Sprague-Dawley rat at 1 mg/kg, po measured for 24 hrs by LC-MS/MS analysis. In kind it is ADME, organism-based. To be noted: in vivo.
A short description of data set [5]: Thermodynamic solubility of the compound in phosphate buffer at pH 6.8 incubated for 24 hrs by HPLC analysis. Format: physicochemical. To be noted: read-out: Therm_solubility.
Another data set concerns the target T3, CYP2B6 (Homo sapiens, UniProt P20813).
T3 sequence (P20813 whole entry): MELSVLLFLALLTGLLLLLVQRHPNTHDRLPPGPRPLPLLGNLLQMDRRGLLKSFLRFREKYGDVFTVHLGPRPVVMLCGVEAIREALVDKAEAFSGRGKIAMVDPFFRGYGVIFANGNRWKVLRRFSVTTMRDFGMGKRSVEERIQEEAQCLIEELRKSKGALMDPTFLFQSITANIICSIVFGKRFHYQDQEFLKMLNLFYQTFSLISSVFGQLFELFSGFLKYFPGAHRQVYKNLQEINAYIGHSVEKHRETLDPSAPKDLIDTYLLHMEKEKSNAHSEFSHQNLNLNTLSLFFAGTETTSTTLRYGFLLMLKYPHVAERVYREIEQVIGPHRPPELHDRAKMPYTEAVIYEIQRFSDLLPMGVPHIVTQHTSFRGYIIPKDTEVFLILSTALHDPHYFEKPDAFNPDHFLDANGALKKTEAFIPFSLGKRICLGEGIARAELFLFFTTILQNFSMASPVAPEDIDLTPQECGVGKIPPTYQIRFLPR
As to the kind of experiment: Inhibition of CYP2B6 in human liver microsomes at 10 uM using bupropion as substrate preincubated for 5 mins followed by NADPH generating system addition and measured after 5 to 10 mins by LC-MS/MS analysis. The following applies: probe bupropion, time 10-15 min. Format: ADME, Microsome.

Data set [6] is described as follows: Drug metabolism in mouse liver microsomes assessed as metabolized compound level at 1 uM preincubated for 5 mins followed by NADP+ addition and measured after 15 mins by LC-MS/MS analysis. Format: ADME, Microsome. The following applies: time 20 min, read-out: Drug metabolism.
Data set [7] can be described thus: Apparent permeability of the compound at pH 7.4 measured after 4 hrs by PAMPA assay. Format: ADME. A general note: The PAMPA barrier holds no transporters, so it reflects passive diffusion.
The nature of data set [8]: Clearance in Balb/cA mouse at 0.5 mg/kg, iv measured for 24 hrs by LC-MS/MS analysis. Format: ADME, organism-based. To be noted: in vivo, iv, 0.5 mg/kg, 24 h.
A short description of data set [9]: Drug concentration in Sprague-Dawley rat kidney at 1 mg/kg, po by LC-MS/MS analysis. Format: ADME, organism-based. The following applies: in vivo.
A further data set deals with CYP2C9 (Homo sapiens, UniProt P11712). The experiment in a line: Inhibition of CYP2C9 in human liver microsomes at 10 uM using diclofenac as substrate preincubated for 5 mins followed by NADPH generating system addition and measured after 5 to 10 mins by LC-MS/MS analysis. In kind it is ADME, Microsome. To be noted: probe diclofenac, time 10-15 min.
Sequence of CYP2C9 (P11712 whole entry): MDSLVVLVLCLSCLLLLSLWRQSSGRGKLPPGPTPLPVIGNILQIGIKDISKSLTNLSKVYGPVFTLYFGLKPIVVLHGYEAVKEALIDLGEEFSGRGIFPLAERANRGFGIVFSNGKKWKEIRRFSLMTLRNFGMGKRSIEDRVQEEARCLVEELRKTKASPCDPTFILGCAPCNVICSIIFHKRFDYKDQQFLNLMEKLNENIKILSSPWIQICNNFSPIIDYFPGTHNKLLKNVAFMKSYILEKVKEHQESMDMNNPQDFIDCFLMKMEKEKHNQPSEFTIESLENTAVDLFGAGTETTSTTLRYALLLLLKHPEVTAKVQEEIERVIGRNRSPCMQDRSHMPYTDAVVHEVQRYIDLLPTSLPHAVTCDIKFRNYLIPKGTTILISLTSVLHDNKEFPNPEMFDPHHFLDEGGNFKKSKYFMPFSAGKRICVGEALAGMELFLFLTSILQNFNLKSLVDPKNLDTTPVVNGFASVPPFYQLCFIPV
A short description of data set [10]: Protein binding in human serum at 1 ug/ml measured after 4 hrs by equilibrium dialysis method. In kind it is ADME, cell-free. To be noted: at 1 µg/mL, read-out: PB (converted). In general terms: In equilibrium dialysis only unbound substance equilibrates across the membrane.
The nature of data set [11]: Half life in Sprague-Dawley rat at 1 mg/kg, iv measured for 24 hrs by LC-MS/MS analysis. In kind it is ADME, organism-based. To be noted: in vivo.
Data set [12] can be described thus: Clearance in Sprague-Dawley rat at 1 mg/kg, iv measured for 24 hrs by LC-MS/MS analysis. In kind it is ADME, organism-based. The following applies: in vivo.
Data set [13] can be described thus: Drug concentration in Sprague-Dawley rat kidney at 0.3 mg/kg, po by LC-MS/MS analysis. Format: ADME, organism-based. The following applies: in vivo.
The nature of data set [14]: Cmax in Sprague-Dawley rat at 1 mg/kg, po measured for 24 hrs by LC-MS/MS analysis. In kind it is ADME, organism-based. Also noted: dose 1 mg/kg, time 24 hrs, route po. To be noted: in vivo.
Data set [15] is described as follows: Protein binding in Sprague-Dawley rat serum at 1 ug/ml measured after 4 hrs by equilibrium dialysis method. Format: ADME, cell-free. The following applies: at 1 µg/mL, read-out: PB (converted).
Data set [16] can be described thus: In vivo inhibition of CYP4A11/4F2 in Sprague-Dawley rat assessed as reduction in 20-HETE levels in kidney at 0.3 mg/kg, po measured after 8 hrs by LC-MS/MS analysis. In kind it is functional.
A short description of data set [17]: Half life in Balb/cA mouse at 0.5 mg/kg, iv measured for 24 hrs by LC-MS/MS analysis. In kind it is ADME, organism-based. The following applies: in vivo, iv, 0.5 mg/kg, 24 h.
The target of the next data set is CYP2D6 (Homo sapiens, UniProt P10635). As to the kind of experiment: Inhibition of CYP2D6 in human liver microsomes at 10 uM using bufuralol as substrate preincubated for 5 mins followed by NADPH generating system addition and measured after 5 to 10 mins by LC-MS/MS analysis. In kind it is ADME, Microsome. To be noted: probe bufuralol, time 10-15 min.
Sequence of CYP2D6 (P10635 whole entry): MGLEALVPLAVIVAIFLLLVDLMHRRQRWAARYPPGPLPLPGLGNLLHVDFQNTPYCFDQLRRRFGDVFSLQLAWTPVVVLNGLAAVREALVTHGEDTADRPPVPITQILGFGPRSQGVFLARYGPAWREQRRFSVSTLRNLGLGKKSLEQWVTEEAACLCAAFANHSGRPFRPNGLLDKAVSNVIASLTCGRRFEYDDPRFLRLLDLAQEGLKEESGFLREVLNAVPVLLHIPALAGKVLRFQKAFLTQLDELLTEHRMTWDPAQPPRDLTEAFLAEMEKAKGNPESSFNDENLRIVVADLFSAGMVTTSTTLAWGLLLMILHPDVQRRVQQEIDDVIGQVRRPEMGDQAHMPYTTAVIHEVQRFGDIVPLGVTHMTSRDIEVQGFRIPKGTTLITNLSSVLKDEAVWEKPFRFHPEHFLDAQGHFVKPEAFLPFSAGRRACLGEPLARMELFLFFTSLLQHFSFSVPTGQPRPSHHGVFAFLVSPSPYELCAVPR
Data set [18] in a line: In vivo inhibition of CYP4A11/4F2 in Sprague-Dawley rat assessed as reduction in 20-HETE levels in kidney at 1 mg/kg, po measured after 8 hrs by LC-MS/MS analysis. In kind it is functional.
The target of data set [19] is T2, CYP3A4. As to the kind of experiment: Inhibition of CYP3A4 in human liver microsomes at 10 uM using midazolam as substrate preincubated for 5 mins followed by NADPH generating system addition and measured after 5 to 10 mins by LC-MS/MS analysis. Format: ADME, Microsome. To be noted: probe midazolam, time 10-15 min.
Data set [20] in a line: Drug concentration in Sprague-Dawley rat kidney at 0.1 mg/kg, po by LC-MS/MS analysis. In kind it is ADME, organism-based. To be noted: in vivo.

Turning to `CC(=O)N1CCC(COc2ccc(-c3ccn[nH]3)nc2)CC1`, the inhibition in vivo at 0.03 mg/kg in [1] was determined as 42%. The inhibition at 10 µM is 1.5% at CYP2C8; -4.7% at CYP3A4 [2]; -5.8% on CYP2B6; -18% on CYP2C9; -5.7% against CYP2D6; -4.1% at CYP3A4 [19]. Further, the figures for the half-life in data set [3] and in data set [11] were 182 min and 181 min, respectively. In [4], the time to peak (Tmax) turned out to be 1.67 h. Besides, the solubility thermodynamic at 24 h in [5] turned out to be 112 µg/mL (≈ 373 µM). Also, the metabolised at 0.25 h, 1 µM in [6] came out at 6.2%. The Papp at 4 h in data set [7] turned out to be 8.5 ×10⁻⁶ cm/s. This molecule also registered a CL in data set [8] of 245 mL/h/kg. Moreover, the Ct in [9] was found to be 1570 ng/g; in [13], 1110 ng/g; in [20], 678 ng/g. In addition, the fraction unbound at 4 h, 1 ug/ml in data set [10] is 0.335; in data set [15], 0.348. Moreover, the clearance in [12] is 3.77 mL/min/kg. The same molecule gave a maximum concentration (Cmax) in data set [14] of 623 ng/mL. In addition, in [16], the inhibition in vivo at 0.3 mg/kg came to 76%. In addition, the t1/2 in data set [17] was 4.66 h. Further, the inhibition in vivo at 1 mg/kg in data set [18] amounted to 79%.

The term inhibition in vivo denotes the change of the read-out against control, counted positive when it falls. The inhibition is the relative decrease from the control value, in per cent. As a reminder, the half-life is the time needed for the level to fall by half in the phase considered. A low value points to rapid decline. Usually Tmax stands for the time at which the peak concentration occurs. The term Papp denotes a coefficient for how fast a substance crosses the barrier. Usually clearance stands for the volume of plasma or blood freed of the substance per unit of time. Read a low clearance as a low capacity for elimination. Broadly, the Cmax is the peak of the concentration-time curve.
